Article PMC5267425, “Identification of small molecule modulators of HIV-1 Tat and Rev protein accumulation” (Retrovirology, 2017)

Key:
[1] = Viable cell count by FSC/SSC gate, CEM-GXR; assay type: cell-based; settings: human, CEM-GXR cells infected with a Clade B HIV-1 strain
Experimental: To assess the activity of compounds against HIV-1 strains having resistance to various ART drugs, assays were performed in the context of CEM-GXR cells. These cells express CD4, CXCR4, and coreceptor, CCR5 as well as an exogenous Tat-driven LTR-GFP expression cassette. Cultures were infected with different HIV-1 strains of interest, differing on their subtypes (A and B), and resistance to three major drug targets (reverse transcriptase, protease, and integrase). The culture contains serial dilutions of the molecule in the final concentrations from 0.156 to 5 μM for 833; 725 nM to 46.87 μM for 791; 1.95 to 62.5 μM for 892. Antiviral activity was evaluated in the assay by measuring inhibition of HIV-1 spread in a coculture of CEM-GXR cells containing 1% of HIV-1 infected (GFP positive) cells using flow cytometric analysis (GuavaSoft 2.2 software, Guava HT8, Millipore). To estimate the viable cell counts, the gate in a flow cytometer (Guava HT8) was set to cover 95% of the freshly passaged uninfected CEM-GXR cell or using ViaCount™. The same parameter was employed to gate viable cells in the inhibition assay and the number of gated cells was obtained by GuavaSoft 2.2 software. For assays using ViaCount™, sample acquisition and data analysis were performed with the selection of EasyFit analysis feature using the ViaCount™ software module.

PBMCs = experiment: Trypan blue exclusion, PBMCs; assay type: cell-based, human; settings: PBMCs
Experimental: To examine the effect of compounds on viral replication, studies were carried out in peripheral blood mononuclear cells (PBMCs). PBMCs were isolated from healthy (HIV-uninfected) volunteer blood donors as described by Dobson-Belaire et al.. Informed consent was obtained from participants in accordance with the guidelines for conduct of clinical research at the University of Toronto and St. Michael’s Hospital, Toronto, Ontario, Canada. Stored PBMCs were thawed, washed with RPMI 1640 complete medium and cultured in RPMI 1640 complete medium containing 2 μg/mL of PHA-L (Sigma-Aldrich) and 20 U/mL of IL-2 (BD Pharmingen) for 72 h. Subsequently, cells were counted and a portion of the cells was separated to another tube for uninfected control treatments. The remaining PBMCs were resuspended in media containing HIV-1 BaL at a multiplicity of infection (MOI) of approximately 0.01 and infected by spinoculation, following which cells were washed twice with room temperature RPMI 1640 complete medium and resuspended to a concentration of 5 × 10^5 cells/mL in complete RPMI 1640 containing 20 U/mL of IL-2. Compounds were added to infected PBMCs or uninfected control PBMCs. Azidothymidine (AZT, Sigma-Aldrich) was used as control treatment at a final concentration of 3.74 μM. On day 4 post infection, culture medium was replenished with the compounds and IL-2 in fresh complete RPMI 1640. On days 2, 4, 6 and 8 post infection, culture supernatant was harvested, virus lysed by adjusting to 1% TritonX-100 and stored at −20 °C for p24 antigen ELISA. A fraction of the culture was harvested to assess percent cell viability by trypan blue exclusion using Glasstic slides (Kova). Relative percent cell viability in compound treated samples versus DMSO-control treated samples was calculated as follows: (total viable cells/total cells)compound/(total viable cells/total cells)DMSO.

HeLa rtTA HIV∆Mls cells = experiment: XTT cell metabolism/viability assay, HeLa; assay type: cell-based; settings: for cell viability at dose required to reduce Gag expression by >80%: XTT and Trypan blue exclusion, 791 20 µM, 833 10 µM
Experimental: Effects of compound treatment on cellular metabolism was assessed by an XTT-based in vitro toxicology assay kit (Sigma-Aldrich) or Trypan blue exclusion (Life Technologies) as proxy for degree of cytotoxicity and expressed relative to DMSO control treatment. For measurement of cell viability using XTT, culture media was removed after 24, 72, and 96 h of compound treatment, replaced with 20% XTT solution and incubated at 37 °C in a 5% CO2 humidified incubator for 2–6 h, and relative cell viability was measured in compound treated cells relative to DMSO-treated cells. Cell viability measurements in CEM-GXR cells are described above.

Row | SMILES | CC50 [1] [µM] | toxicity at concentrations required to block HIV-1 replication (PBMCs) | cell viability at dose required to reduce Gag expression by >80% (HeLa rtTA HIV∆Mls cells) | mitochondrial function by XTT (HeLa rtTA HIV∆Mls cells; up to 10 µM) | toxicity on extended culture (cell proliferation by XTT) (HeLa rtTA HIV∆Mls cells; 1, 3 and 4 days post-treatment, in comparison to 833 and 892 (Figure S5))
1 | COc1ccc(C=NNC(=O)c2ccccc2O)cc1O [Compound 892, 2-hydroxy-N′-(3-hydroxy-4-methoxybenzylidene)benzohydrazide] | 31 | displayed toxicity |  |  | 
2 | O=C(NC(=S)NNC(=O)c1ccccc1O)c1ccc(-c2ccccc2)cc1 [Compound 833, N-([2-(2-hydroxybenzoyl)hydrazino]carbonothioyl}-4-biphenylcarboxamide] | > 5 | displayed toxicity | not affected | some reduction in mitochondrial function | 
3 | Cc1cc(NCc2cccnc2)n2ncc(-c3ccc(Cl)cc3)c2n1 [Compound 791, 3-(4-chlorophenyl)-5-methyl-N-(3-pyridinylmethyl)pyrazolo[1,5-a]pyrimidin-7-amine] | > 12 |  | not affected |  | reduced toxicity
